Results on 39 molecules are retold here after ChEMBL document CHEMBL1146931, “Inhibitors of VEGF receptors-1 and -2 based on the 2-((pyridin-4-yl)ethyl)pyridine template” (Bioorg Med Chem Lett, 2006).

Where only a bound is given, the exact number is not on record here.

One series concerns Caco-2. As to the kind of experiment: Intrinsic permeability in Caco-2 cells. The note with it: human. A general note: Passage across Caco-2 layers is used to estimate intestinal permeability.
For series [1], the target named is T1, Vascular endothelial growth factor receptor 2 (Homo sapiens, UniProt P35968).
Description: Inhibition of VEGFR2 phosphorylation in presence of 2 uM ATP by HTRF assay
Series [2] concerns the target Vascular endothelial growth factor receptor 1 (Homo sapiens, UniProt P17948).
Description: Inhibition of VEGFR1 phosphorylation in presence of 2 uM ATP by HTRF assay
The target in series [3] is T1, Vascular endothelial growth factor receptor 2. As to the kind of experiment: Inhibition of VEGFR2 phosphorylation in HEK293 cells by cell-based ELISA. On the technique in general: In an ELISA, binding on a coated surface is turned into a signal by an enzyme label.
The target is the same in series [4]. As to the kind of experiment: Binding affinity to VEGFR2 at 0.043 uM.
Series [5] shares this target. As to the kind of experiment: Binding affinity to VEGFR2 at 0.031 uM.
For series [6] the target is unchanged. As to the kind of experiment: Binding affinity to VEGFR2 at 0.058 uM.

Sequence of Vascular endothelial growth factor receptor 1 (P17948 whole entry): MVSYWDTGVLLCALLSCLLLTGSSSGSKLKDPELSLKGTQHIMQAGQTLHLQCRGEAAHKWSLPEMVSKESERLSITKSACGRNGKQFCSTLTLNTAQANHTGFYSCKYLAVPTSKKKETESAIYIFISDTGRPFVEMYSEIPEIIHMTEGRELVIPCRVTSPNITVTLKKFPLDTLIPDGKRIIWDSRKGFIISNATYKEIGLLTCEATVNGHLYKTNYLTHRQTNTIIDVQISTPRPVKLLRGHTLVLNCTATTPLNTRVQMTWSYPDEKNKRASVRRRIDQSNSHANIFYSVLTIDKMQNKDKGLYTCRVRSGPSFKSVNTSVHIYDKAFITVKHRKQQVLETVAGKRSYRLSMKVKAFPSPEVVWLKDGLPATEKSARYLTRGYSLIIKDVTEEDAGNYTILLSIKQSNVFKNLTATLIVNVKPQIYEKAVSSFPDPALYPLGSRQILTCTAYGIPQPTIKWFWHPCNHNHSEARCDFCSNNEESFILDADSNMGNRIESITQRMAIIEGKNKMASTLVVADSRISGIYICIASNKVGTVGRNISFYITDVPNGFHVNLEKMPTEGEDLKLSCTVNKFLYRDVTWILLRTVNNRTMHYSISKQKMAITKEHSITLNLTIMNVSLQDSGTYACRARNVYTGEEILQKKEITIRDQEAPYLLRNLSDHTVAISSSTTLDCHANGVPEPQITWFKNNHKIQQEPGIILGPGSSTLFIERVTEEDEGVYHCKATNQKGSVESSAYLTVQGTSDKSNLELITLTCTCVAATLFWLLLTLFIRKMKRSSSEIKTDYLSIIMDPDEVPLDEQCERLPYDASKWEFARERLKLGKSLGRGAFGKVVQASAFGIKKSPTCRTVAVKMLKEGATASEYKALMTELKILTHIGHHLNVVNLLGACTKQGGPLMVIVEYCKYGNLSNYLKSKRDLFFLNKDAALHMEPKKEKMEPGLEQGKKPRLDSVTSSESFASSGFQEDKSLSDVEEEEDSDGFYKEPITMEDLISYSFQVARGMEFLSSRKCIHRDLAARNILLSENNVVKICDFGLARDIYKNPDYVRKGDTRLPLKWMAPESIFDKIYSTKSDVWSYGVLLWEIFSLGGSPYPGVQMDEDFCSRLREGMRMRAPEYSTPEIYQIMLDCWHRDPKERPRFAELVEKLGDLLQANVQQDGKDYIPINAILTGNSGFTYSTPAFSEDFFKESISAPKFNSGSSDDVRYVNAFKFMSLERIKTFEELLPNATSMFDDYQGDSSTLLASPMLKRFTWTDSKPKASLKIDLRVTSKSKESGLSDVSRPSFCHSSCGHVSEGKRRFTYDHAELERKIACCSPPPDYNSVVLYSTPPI
T1 sequence (P35968 whole entry): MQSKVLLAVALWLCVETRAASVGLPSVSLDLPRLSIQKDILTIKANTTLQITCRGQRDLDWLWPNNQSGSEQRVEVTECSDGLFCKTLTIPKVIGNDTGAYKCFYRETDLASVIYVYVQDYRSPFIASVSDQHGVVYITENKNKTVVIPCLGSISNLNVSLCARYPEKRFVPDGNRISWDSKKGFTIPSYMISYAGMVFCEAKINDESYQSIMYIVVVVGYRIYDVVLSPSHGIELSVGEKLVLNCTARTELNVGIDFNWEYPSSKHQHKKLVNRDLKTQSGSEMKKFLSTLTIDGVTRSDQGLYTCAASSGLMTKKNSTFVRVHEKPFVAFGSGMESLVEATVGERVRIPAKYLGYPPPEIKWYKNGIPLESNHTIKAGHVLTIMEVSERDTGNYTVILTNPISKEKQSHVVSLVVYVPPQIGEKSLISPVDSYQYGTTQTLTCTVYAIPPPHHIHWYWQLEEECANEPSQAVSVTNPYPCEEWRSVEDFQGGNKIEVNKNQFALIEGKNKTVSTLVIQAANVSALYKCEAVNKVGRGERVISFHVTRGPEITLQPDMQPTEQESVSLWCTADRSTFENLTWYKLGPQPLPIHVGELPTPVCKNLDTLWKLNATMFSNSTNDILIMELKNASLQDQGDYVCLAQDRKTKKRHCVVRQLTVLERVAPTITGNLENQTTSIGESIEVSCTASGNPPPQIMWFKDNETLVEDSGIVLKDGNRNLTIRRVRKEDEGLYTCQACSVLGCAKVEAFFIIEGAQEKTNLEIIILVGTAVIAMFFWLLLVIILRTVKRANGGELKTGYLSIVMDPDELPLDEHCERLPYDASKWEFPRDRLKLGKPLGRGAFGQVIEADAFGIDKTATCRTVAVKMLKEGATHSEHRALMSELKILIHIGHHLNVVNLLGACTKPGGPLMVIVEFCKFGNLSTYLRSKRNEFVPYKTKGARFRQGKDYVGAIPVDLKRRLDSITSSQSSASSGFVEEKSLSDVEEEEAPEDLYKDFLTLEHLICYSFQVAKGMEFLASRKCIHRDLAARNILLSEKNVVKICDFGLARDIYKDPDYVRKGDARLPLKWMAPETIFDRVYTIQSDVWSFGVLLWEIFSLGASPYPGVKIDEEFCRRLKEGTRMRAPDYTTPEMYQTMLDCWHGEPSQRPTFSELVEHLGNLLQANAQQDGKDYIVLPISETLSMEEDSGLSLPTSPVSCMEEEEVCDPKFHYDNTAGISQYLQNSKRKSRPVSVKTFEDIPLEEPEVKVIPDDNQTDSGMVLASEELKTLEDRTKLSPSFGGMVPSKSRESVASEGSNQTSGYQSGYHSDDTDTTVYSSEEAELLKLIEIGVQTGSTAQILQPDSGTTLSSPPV

Take `O=C(Nc1cnc2ccccc2c1)c1ccccc1NCc1ccncc1`: the Pm in the series with Caco-2 is on record as 17.3 10^-5 cm/min.

As to `Cc1cccc(Nc2nnc(-c3cccnc3CCc3ccncc3)o2)c1`, the IC50 (usually the concentration at which inhibition is half-maximal) in series [1] stood at 770 nM; in series [2] it was 1070 nM; in series [3] (read-out: IC50), 2140 nM.

On to `Clc1ccc(Nc2nnc(-c3cccnc3CCc3ccncc3)o2)cc1Cl`, for which the values for the IC50 in series [1], in series [2] and in series [3] (read-out: IC50) were 79 nM, 270 nM and 94 nM, respectively.

Turning to `CC(C)(C)c1ccc(Nc2nnc(-c3cc4ccccc4nc3CCc3ccncc3)o2)cc1`, the half-maximal inhibitory concentration (IC50) in series [1] and in series [2] was greater than 10000 nM in each case.

With `CC(C)(C)c1ccc(Nc2nnc(-c3ccncc3CCc3ccncc3)o2)cc1`, the IC50 in series [1] was determined as 190 nM; in series [2] it was 220 nM; in series [3] (read-out: IC50), 320 nM.

In the case of `COc1cccc(Nc2nnc(-c3cccnc3CCc3ccncc3)o2)c1`, the values for the IC50 in series [1], in series [2] and in series [3] (read-out: IC50) were 170 nM, 500 nM and 290 nM, respectively.

For `FC(F)(F)c1ccc(Nc2nnc(-c3cnccc3CCc3ccncc3)o2)cc1`, the IC50 was found to be 440 nM in series [1], 670 nM in series [2] and 740 nM in series [3] (read-out: IC50).

`CC(C)(C)c1ccc(Nc2nnc(-c3cccnc3CCc3ccncc3)o2)cc1`: the IC50 in series [1] came out at 43 nM; in series [2] it was 770 nM; in series [3] (read-out: IC50), 63 nM. Besides, the Ki (usually the dissociation constant of the complex between target and ligand, obtained from inhibition or displacement) in series [4] was 130 nM.

With `FC(F)(F)c1cccc(Nc2nnc(-c3cnccc3CCc3ccncc3)o2)c1`, the IC50 in series [1] is 720 nM; in series [2], 1220 nM; in series [3] (read-out: IC50), 2540 nM.

Consider `FC(F)(Cl)Oc1ccc(Nc2nnc(-c3cccnc3CCc3ccncc3)o2)cc1`, for which the IC50 is 31 nM in series [1], 730 nM in series [2] and 44 nM in series [3] (read-out: IC50). In addition, the affinity in series [5] corresponds to a Ki of 100 nM.

As for `FC(F)(Cl)Oc1ccc(Nc2nnc(-c3ccncc3CCc3ccncc3)o2)cc1`, the IC50 in series [1] was determined as 220 nM; in series [2], 810 nM; in series [3] (read-out: IC50), 530 nM.

As for `FC(F)(F)Oc1cccc(Nc2nnc(-c3ccncc3CCc3ccncc3)o2)c1`, the IC50 in series [1] turned out to be 470 nM; in series [2], 710 nM; in series [3] (read-out: IC50), 860 nM.

For `FC(F)(F)c1cccc(Nc2nnc(-c3cccnc3CCc3cccc4ncccc34)o2)c1`, the IC50 is 5640 nM in series [1], greater than 10000 nM in series [2] and greater than 10000 nM in series [3] (read-out: IC50).

For the molecule `Cc1ccccc1Nc1nnc(-c2cccnc2CCc2ccncc2)o1`, the IC50 in series [1] and in series [2] was greater than 10000 nM in each case.

For `FC(F)(F)c1cccc(Nc2nnc(-c3cc4ccccc4nc3CCc3ccncc3)o2)c1`, the IC50 in series [1], in series [2] and in series [3] (read-out: IC50) was greater than 10000 nM in each case.

Take `FC(F)(F)c1cccc(Nc2nnc(-c3cccnc3CCc3ccc4ccccc4n3)o2)c1`: the IC50 in series [1], in series [2] and in series [3] (read-out: IC50) was greater than 10000 nM throughout.

As to `FC(F)(F)Oc1cccc(Nc2nnc(-c3cccnc3CCc3ccncc3)o2)c1`, in the series with Caco-2, the Pm is listed as 42.6 10^-5 cm/min. For the same molecule, the IC50 in series [1] was determined as 69 nM; in series [2], 260 nM; in series [3] (read-out: IC50), 110 nM.

Consider `c1cnc(CCc2ccncc2)c(-c2nnc(Nc3cnc4ccccc4c3)o2)c1`, for which the IC50 was 380 nM in series [1], 440 nM in series [2] and “Not Active” in series [3] (hek293).

As to `c1ccc2ncc(Nc3nnc(-c4cc5ccccc5nc4CCc4ccncc4)o3)cc2c1`, the IC50 in series [1] and in series [2] was greater than 10000 nM throughout.

Take `Fc1ccc(CCc2ncccc2-c2nnc(Nc3cccc(C(F)(F)F)c3)o2)cc1F`: the IC50 in series [1], in series [2] and in series [3] (read-out: IC50) was greater than 10000 nM each time.

Regarding `FC(F)(F)Oc1ccc(Nc2nnc(-c3cnccc3CCc3ccncc3)o2)cc1`, the IC50 in series [1] came to 360 nM; in series [2], 470 nM; in series [3] (read-out: IC50) it was 510 nM.

Turning to `FC(F)(F)c1cccc(Nc2nnc(-c3cccnc3CCc3ccccn3)o2)c1`, the IC50 in series [1], in series [2] and in series [3] (read-out: IC50) was greater than 10000 nM throughout.

Regarding `CC(C)c1ccc(Nc2nnc(-c3ccncc3CCc3ccncc3)o2)cc1`, the IC50 in series [1] came to 250 nM; in series [2], 270 nM; in series [3] (read-out: IC50), 390 nM.

With `c1ccc(-c2ccc(Nc3nnc(-c4cccnc4CCc4ccncc4)o3)cc2)cc1`, the IC50 in series [1] is 2630 nM; in series [2] it was greater than 10000 nM.

In the case of `FC(F)(F)c1ccc(Nc2nnc(-c3ccncc3CCc3ccncc3)o2)cc1`, the IC50 in series [1] worked out at 290 nM; in series [2], 840 nM; in series [3] (read-out: IC50), 720 nM.

Take `CC(C)c1ccc(Nc2nnc(-c3cccnc3CCc3ccncc3)o2)cc1`: the IC50 in series [1] is 51 nM; in series [2], 620 nM; in series [3] (read-out: IC50), 75 nM.

For the molecule `FC(F)(F)c1cccc(Nc2nnc(-c3cccnc3CCc3cccnc3)o2)c1`, the IC50 in series [1], in series [2] and in series [3] (read-out: IC50) was greater than 10000 nM each time.

Regarding `FC(F)(F)Oc1ccc(Nc2nnc(-c3cccnc3CCc3ccncc3)o2)cc1`, the results for the IC50 in series [1], in series [2] and in series [3] (read-out: IC50) were 44 nM, 560 nM and 51 nM, respectively.

As to `FC(F)(F)c1ccc(Nc2nnc(-c3cccnc3CCc3ccncc3)o2)cc1`, the affinity in series [6] corresponds to a Ki of 120 nM. The IC50 in series [1] came to 58 nM; in series [2] it was 320 nM; in series [3] (read-out: IC50), 76 nM.

In the case of `FC(F)(F)Oc1cccc(Nc2nnc(-c3cnccc3CCc3ccncc3)o2)c1`, the IC50 in series [1] was 550 nM; in series [2], 740 nM; in series [3] (read-out: IC50), 760 nM.

For the molecule `FC(F)(F)c1cccc(Nc2nnc(-c3ccncc3CCc3ccncc3)o2)c1`, the results for the IC50 in series [1], in series [2] and in series [3] (read-out: IC50) were 560 nM, 760 nM and 1110 nM, respectively.

For the molecule `FC(F)(Cl)Oc1ccc(Nc2nnc(-c3cnccc3CCc3ccncc3)o2)cc1`, the results for the IC50 in series [1], in series [2] and in series [3] (read-out: IC50) were 440 nM, 530 nM and 590 nM, respectively.

On to `Cc1ccc(Nc2nnc(-c3cccnc3CCc3ccncc3)o2)cc1C(F)(F)F`, for which the IC50 in series [1] stood at 87 nM; in series [2], 120 nM; in series [3] (read-out: IC50), 92 nM.

On to `COc1ccc(Nc2nnc(-c3cccnc3CCc3ccncc3)o2)cc1OC`, for which the IC50 in series [1] was 67 nM; in series [2], 180 nM; in series [3] (read-out: IC50) it was 110 nM.

In the case of `FC(F)(F)c1cccc(Nc2nnc(-c3cccnc3CCc3ccc4[nH]ncc4c3)o2)c1`, the IC50 was 3870 nM in series [1], greater than 10000 nM in series [2] and greater than 10000 nM in series [3] (read-out: IC50).

On to `c1cnc(CCc2ccncc2)c(-c2nnc(NCc3ccc4c(c3)OCO4)o2)c1`, for which the Pm with Caco-2 is given as 23.6 10^-5 cm/min. For the same molecule, the figures for the IC50 in series [1], in series [2] and in series [3] (read-out: IC50) were 85 nM, 140 nM and 290 nM, respectively.

With `CC(C)(C)c1ccc(Nc2nnc(-c3cnccc3CCc3ccncc3)o2)cc1`, the IC50 amounted to 310 nM in series [1], 480 nM in series [2] and 520 nM in series [3] (read-out: IC50).

Regarding `FC(F)(F)c1cccc(Nc2nnc(-c3cccnc3CCc3ccncc3)o2)c1`, the figures for the IC50 in series [1], in series [2] and in series [3] (read-out: IC50) were 64 nM, 220 nM and 110 nM, respectively.

Consider `FC(F)(F)Oc1ccc(Nc2nnc(-c3ccncc3CCc3ccncc3)o2)cc1`, for which the half-maximal inhibitory concentration (IC50) in series [1] was 350 nM; in series [2], 930 nM; in series [3] (read-out: IC50) it was 660 nM.
